In PMC2644664, “Effects of the K65R and K65R/M184V reverse transcriptase mutations in subtype C HIV on enzyme function and drug resistance” (Retrovirology, 2009):

Experiments:
[1] = tested on: T1, subtype C HIV-1 RT (cWT), recombinant p66/p51 heterodimer; test: gel-based primer extension, inhibition of full-length DNA synthesis; assay type: biochemical, Human immunodeficiency virus type 1; conditions: 19D/57D DNA primer/template
T1 construct: gene pol; mature RT cut from Gag-Pol polyprotein; plasmid pcRT6H-PROT, His-tagged, E. coli M15(pREP4); with p51 RT
Text: gel-based primer extension, inhibition of full-length DNA synthesis on subtype C HIV-1 RT (cWT), recombinant p66/p51 heterodimer | we determined the efficiencies of incorporation of TFV-DP using subtype C WT

[2] = target: T1, subtype C HIV-1 RT (cWT), recombinant p66/p51 heterodimer; test: steady-state filter-binding assay, [3H]dATP incorporation; assay type: biochemical, Human immunodeficiency virus type 1; conditions: dPR primer on subtype C HIV-1 PBS RNA, 50 μM dCTP/dGTP/dTTP, 5 mM MgCl2, pH 7.8, 37°C
Text: steady-state filter-binding assay, [3H]dATP incorporation on subtype C HIV-1 RT (cWT), recombinant p66/p51 heterodimer

SMILES | IC50 [1] | Ki ([2]; variable dATP, chain terminator, read-out: Ki(TFV), μM^b) | Km ([2]; no TFV-DP)
C[C@H](Cn1cnc2c(N)ncnc21)OCP(=O)(O)OP(=O)(O)OP(=O)(O)O [TFV-DP] | 2600 ± 500 nM | 0.24 ± 0.04 µM | –
Nc1ncnc2c1ncn2[C@H]1C[C@H](O)[C@@H](COP(=O)(O)OP(=O)(O)OP(=O)(O)O)O1 [dATP] | – | – | 0.51 ± 0.04 µM
